pIC50: −log10 of the molar value. Read-outs that look alike come from different tables or passages of the source.
Legend:
[1] = target: Collagenase from Clostridium histolyticum; experiment: Collagenase inhibition; assay type: biochemical; conditions: mean ± SD
Protocol: The assay was performed according to a previous study. Collagenase was obtained from Clostridium histolyticum (ChC—EC.3.4.23.3), and the assay was performed in 50 mM Tricine buffer consisting of 400 mM NaCl and 10 mM CaCl2 (pH 7.5). Collagenase was dissolved in the buffer to achieve an enzyme activity concentration of 0.8 unit/mL, and the synthetic substrate N-[3-(2-furyl) acryloyl]-Leu-Gly-Pro-Ala (FALGPA) was dissolved in the buffer to make up the final concentration of 2 mM. Serial diluted samples were incubated with the enzyme for 15 min. After that, the substrate was added to each serial solution. Absorbance was measured using a microplate reader (Costar, 96) at 490 nm. Each measurement was made in triplicate. Percentage of collagenase inhibition (%) was calculated according to the formula: inhibition (%) = [(Acontrol − Asample/Acontrol) × 100].
A sample: absorbance value of the collagenase activity from samples or positive control (quercetin)
A control: absorbance value of the collagenase activity from negative control (solution without samples)

[2] = target: Porcine pancreatic elastase (Sus scrofa, UniProt P00772); experiment: Elastase inhibition; assay type: biochemical; conditions: for IC50: read-out: Elastase IC50 (converted)
Protocol: This assay was performed according to a previous study. Porcine pancreatic elastase was used in this assay at stock concentration of 3.33 mg/mL in sterile water. N-Succinyl-[…]-nitroanilide ([…]) was used as a substrate and dissolved in buffer to make up 1.6 mM solution. A serial dilution of the extract with amount of 50 μL each was incubated with the enzyme for 15 min, and the substrate was added subsequently and makes up the final reaction mixture of 250 μL. Absorbance value was measured at 400 nm using a microplate reader. Each measurement was made in triplicate. The percentage of elastase inhibition (%) was calculated according to the formula: inhibition (%) = [(Acontrol - Asample/Acontrol) × 100]. […] A control: absorbance value of the elastase activity from negative control (solution without samples)

[3] = target: T1, hyaluronidase (Bos taurus, UniProt Q2YDK3); experiment: Hyaluronidase inhibition; assay type: biochemical; conditions: mean ± SD
T1 sequence (Q2YDK3 36-553): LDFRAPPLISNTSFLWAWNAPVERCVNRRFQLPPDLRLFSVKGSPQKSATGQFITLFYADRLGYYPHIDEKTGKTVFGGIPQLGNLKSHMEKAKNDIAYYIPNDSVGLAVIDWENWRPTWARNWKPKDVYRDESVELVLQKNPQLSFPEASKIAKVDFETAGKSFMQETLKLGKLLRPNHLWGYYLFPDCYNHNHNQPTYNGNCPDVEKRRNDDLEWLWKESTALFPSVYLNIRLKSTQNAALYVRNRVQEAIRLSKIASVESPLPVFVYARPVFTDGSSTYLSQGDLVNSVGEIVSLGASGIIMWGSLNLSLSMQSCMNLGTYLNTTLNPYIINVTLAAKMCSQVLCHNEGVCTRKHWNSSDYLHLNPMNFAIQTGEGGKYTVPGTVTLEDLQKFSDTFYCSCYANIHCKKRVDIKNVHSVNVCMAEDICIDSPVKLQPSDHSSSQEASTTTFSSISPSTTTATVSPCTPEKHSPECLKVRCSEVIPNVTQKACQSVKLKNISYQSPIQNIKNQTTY
Protocol: The hyaluronidase inhibition assay was performed using hyaluronidase (1.5 mg/mL) and the substrate hyaluronic acid (1 mg/ml in 0.1 M acetate buffer; pH 3.5), according to a previous study. The reaction mixture was prepared consisting of 25 μL of CaCl2 (12.5 mM), 12.5 μL of each test sample (serial dilution), hyaluronidase (1.5 mg/mL), and 100 μL substrate hyaluronic acid. Afterwards, reaction mixture was placed in a water bath at 100°C for 3 min, and subsequently, 25 μL of 0.8 M KBO2 was added. After cooling to the room temperature, 800 μL DMAB (4 g DMAB in 40 mL acetic acid and 5 mL 10 N HCl) was added to the mixture following the incubation for 20 min. The absorbance was measured at 600 nm. Each measurement was made in triplicate. The percentage of hyaluronidase inhibition (%) was calculated according to the formula: inhibition (%) = [(Acontrol − Asample/Acontrol) × 100].
A sample: absorbance value of the hyaluronidase activity from samples or positive control (quercetin)
A control: absorbance value of the hyaluronidase activity from negative control (solution without samples)

[4] = target: mushroom tyrosinase (Agaricus bisporus, UniProt C7FF04); experiment: Tyrosinase inhibition; assay type: biochemical; conditions: mean ± SD
Protocol: This assay was performed using mushroom tyrosinase and L-DOPA as substrates, according to a previous study with slight modifications. […] After adding L-DOPA, the reaction mixture was monitored at 475 nm for dopachrome formation using a microplate reader (Costar, 96). Each measurement was made in triplicate. The percentage of tyrosinase inhibition (%) was calculated according to the formula: inhibition (%) = [(Acontrol − Asample/Acontrol) × 100]. […] A control: absorbance value of the tyrosinase activity from negative control (solution without samples)

[5] = DPPH assay
Protocol: (§1) Total phenolic content was estimated using the Folin–Ciocalteu method as described in a previous study, while antioxidant activity was determined using two colorimetric methods, DPPH assay and FRAP assay. The analysis was performed as in the previous study.

[6] = FRAP assay
Protocol: as §1

Sequence of Porcine pancreatic elastase (P00772 27-266): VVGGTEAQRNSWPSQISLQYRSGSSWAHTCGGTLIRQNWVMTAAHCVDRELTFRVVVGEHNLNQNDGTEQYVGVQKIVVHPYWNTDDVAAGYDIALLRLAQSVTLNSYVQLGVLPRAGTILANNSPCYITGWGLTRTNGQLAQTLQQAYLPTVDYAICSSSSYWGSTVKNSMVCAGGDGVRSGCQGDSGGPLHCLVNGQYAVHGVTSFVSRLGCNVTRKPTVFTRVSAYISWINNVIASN
Sequence of mushroom tyrosinase (C7FF04 2-392): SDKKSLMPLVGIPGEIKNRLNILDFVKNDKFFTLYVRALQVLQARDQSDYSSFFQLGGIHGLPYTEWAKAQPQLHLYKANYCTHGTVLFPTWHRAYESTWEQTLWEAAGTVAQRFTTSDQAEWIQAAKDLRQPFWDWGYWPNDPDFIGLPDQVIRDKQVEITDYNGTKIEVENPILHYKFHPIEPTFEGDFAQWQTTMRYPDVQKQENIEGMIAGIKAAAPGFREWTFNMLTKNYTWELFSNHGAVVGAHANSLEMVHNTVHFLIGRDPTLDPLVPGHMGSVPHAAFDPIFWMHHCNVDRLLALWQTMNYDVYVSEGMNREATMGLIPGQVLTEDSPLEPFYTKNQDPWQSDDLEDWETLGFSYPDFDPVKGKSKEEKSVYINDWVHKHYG

SMILES	Collagenase IC50 [1]	IC50 ([2]; mean ± SD)	also measured
C[C@@H]1O[C@@H](OC[C@H]2O[C@@H](Oc3c(-c4ccc(O)c(O)c4)oc4cc(O)cc(O)c4c3=O)[C@H](O)[C@@H](O)[C@@H]2O)[C@H](O)[C@H](O)[C@H]1O [Rutin]	63.46 ± 3.4 µg/mL	199 µM	
O.Oc1cc(O)c2c(c1)O[C@H](c1ccc(O)c(O)c1)[C@@H](O)C2 [Catechin]	29.33 ± 2.4 µg/mL		Elastase IC50 ([2]; mean ± SD): 15.00 ± 5.9 µg/mL; Hyaluronidase IC50 [3]: 22.99 ± 0.2 µg/mL; Tyrosinase IC50 [4]: 22.54 ± 4.61 µg/mL
Oc1cc(O)c2c(c1)O[C@H](c1ccc(O)c(O)c1)[C@H](O)C2 [Epicatechin]	65.96 ± 7.8 µg/mL	145 µM	
O=c1cc(CO)occ1O [Kojic acid, reference compound]			pIC50 [2]: 3.82
O=C(O)[C@]1(O)C[C@@H](O)[C@@H](O)[C@H](O)C1 [Quinic acid]	52.78 ± 1.8 µg/mL	748 µM	
O=C1O[C@H]([C@@H](O)CO)C(O)=C1O [Ascorbic acid]			DPPH (EC50) [5]: 2.92 ± 0.29 µg/mL
O=c1c(O)c(-c2ccc(O)c(O)c2)oc2cc(O)cc(O)c12 [Quercetin]			FRAP [6]: 24.04 ± 1.23 mM FeSO4/mg extract

— publication PMC8979739, “Phytochemical Profiling of the Leaf Extract of Ximenia americana var. caffra and Its Antioxidant, Antibacterial, and Antiaging Activities In Vitro and in Caenorhabditis elegans: A Cosmeceutical and Dermatological Approach” (Oxidative Medicine and Cellular Longevity, 2022)
